Our source for the LD99 values is ChEMBL document CHEMBL1141331, “Citromycetins and bilains A-C: new aromatic polyketides and diketopiperazines from Australian marine-derived and terrestrial Penicillium spp” (2007).

The nature of this assay: Cytotoxicity against mouse NS1 cells. The format is functional.
Consider `C[C@@H]1CC(=O)C2=C(O1)c1cc(O)c(O)cc1OC2`, for which the LD99 was determined as 0.05 µM.

`CS[C@@H]1C(=O)N(C)[C@](Cc2ccc(OCC=C(C)C)cc2)(SC)C(=O)N1C` (relative stereo) came in with an LD99 of 0.15 µM.

The molecule `Cc1cc(=O)c2c(o1)-c1cc(O)c(O)cc1OC2` [CITROMYCIN] displayed an LD99 of 0.1 µM.
